Each structure is given as a SMILES string.

The text below walks through data of patent US8455475B2 (Gruenenthal GmbH, priority 2009, dated 2013).

The assay deals with T1, rat B1R (bradykinin receptor 1) (Rattus norvegicus, UniProt P97583).
T1 construct: expressed in transfected cells; host or cells: CHO K1 cells
T1 sequence (P97583 1-337): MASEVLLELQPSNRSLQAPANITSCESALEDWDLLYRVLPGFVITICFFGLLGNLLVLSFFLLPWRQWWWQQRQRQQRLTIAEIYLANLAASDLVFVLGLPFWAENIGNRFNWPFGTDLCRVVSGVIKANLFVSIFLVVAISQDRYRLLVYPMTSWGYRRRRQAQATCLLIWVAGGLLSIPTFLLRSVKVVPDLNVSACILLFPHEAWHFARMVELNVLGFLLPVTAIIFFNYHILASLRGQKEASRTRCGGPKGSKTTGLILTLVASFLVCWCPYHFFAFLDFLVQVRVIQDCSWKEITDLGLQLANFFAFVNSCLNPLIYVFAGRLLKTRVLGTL
Put plainly: FLIPR Ca2+ assay (Fluo-4) on CHO K1 cells stably transfected with the B1R gene of the rat (rB1R cells): % inhibition at 10 μM / IC50, agonist Des-Arg9-bradykinin. In kind it is cell-based. As to conditions: CHO-K1, rat B1R. The gist of the method:
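Antagonism is measured as the drop in peak Fluo-4 Ca2+ signal when the EC80 agonist follows 10–20 min compound exposure. The single-point screen uses 10 μM; IC50 uses several concentrations. Values are given as % of maximal achievable inhibition.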
Turning to `O=C(c1ccc2c(c1)C(N(C(=O)c1ccccc1Cl)C1CC1)CC2)N1CCC2(CCN(S(=O)(=O)c3ccc(Cl)s3)CC2)C1` (centres unmarked) [IND_CC-615, 2-Chloro-N-[6-[8-[(5-chloro-thiophen-2-yl)sulfonyl]-2,8-diazaspiro[4.5]-decane-2-carbonyl]-2,3-dihydro-1H-inden-1-yl]-N-cyclopropyl-benzamide], the inhibition (as a rule, the drop in the measured response relative to a control, in per cent) at 10 µM came out at 67%.
Consider `CCCC(=O)NC1CCc2ccc(C(=O)N3CCC4(CCN(c5ccncc5)CC4)C3)cc21` (centres unmarked) [IND_CC-411, N-[6-(8-Pyridin-4-yl-2,8-diazaspiro[4.5]decane-2-carbonyl)-2,3-dihydro-1H-inden-1-yl]-butyramide], for which the inhibition at 10 µM turned out to be 101%.
The value for `O=C(NC1CCc2ccc(C(=O)N3CCC4(CCN(C(=O)Nc5c(Cl)cccc5Cl)CC4)CC3)cc21)c1ccccc1Cl` (centres unmarked) [IND_CC-709, 3-[3-[(2-Chloro-benzoyl)amino]-2,3-dihydro-1H-indene-5-carbonyl]-N-(2,6-dichloro-phenyl)-3,9-diazaspiro[5.5]undecane-9-carboxylic acid amide] was 91%; that for `O=C(NC1CCc2ccc(C(=O)N3CCC4(CCN(Cc5ccc(F)cc5F)CC4)C3)cc21)c1ccccc1Cl` (centres unmarked) [IND_CC-544, 2-Chloro-N-[6-[8-[(2,4-difluoro-phenyl)-methyl]-2,8-diazaspiro[4.5]decane-2-carbonyl]-2,3-dihydro-1H-inden-1-yl]-benzamide] was 99%.
Consider `Cc1cccc(C(=O)NC2CCc3ccc(C(=O)N4CCC5(CCN(c6ccncc6)CC5)C4)cc32)c1C` (centres unmarked) [IND_CC-389, 2,3-Dimethyl-N-[6-(8-pyridin-4-yl-2,8-diazaspiro[4.5]decane-2-carbonyl)-2,3-dihydro-1H-inden-1-yl]-benzamide], for which the inhibition at 10 µM was 103%.
Turning to `O=C(NC1CCc2ccc(C(=O)N3CCC4(CCN(c5ccncc5)CC4)C3)cc21)c1cc(Cl)ccc1C(F)(F)F` (centres unmarked) [IND_CC-316, 5-Chloro-N-[6-(8-pyridin-4-yl-2,8-diazaspiro[4.5]decane-2-carbonyl)-2,3-dihydro-1H-inden-1-yl]-2-(trifluoromethyl)-benzamide], the inhibition at 10 µM came to 100%.
On to `O=C(c1ccc2c(c1)C(N(C(=O)c1ccccc1Cl)C1CC1)CC2)N1CCC2(CCN(Cc3c(F)cccc3F)CC2)C1` (centres unmarked) [IND_CC-520, 2-Chloro-N-cyclopropyl-N-[6-[8-[(2,6-difluoro-phenyl)-methyl]-2,8-diazaspiro[4.5]decane-2-carbonyl]-2,3-dihydro-1H-inden-1-yl]-benzamide], for which the inhibition at 10 µM came out at 72%.
The value for `O=C(c1ccc2c(c1)C(NS(=O)(=O)c1cccc(C(F)(F)F)c1)CC2)N1CCC2(CC1)CCN(c1ccncc1)C2` (centres unmarked) [IND_CC-329, N-[6-(2-Pyridin-4-yl-2,8-diazaspiro[4.5]decane-8-carbonyl)-2,3-dihydro-1H-inden-1-yl]-3-(trifluoromethyl)-benzenesulfonic acid amide] was 97%.
The value for `Cn1nnc2cc(CN3CCC4(CC3)CCN(C(=O)c3ccc5c(c3)C(NC(=O)c3cc(C(F)(F)F)ccc3Cl)CC5)C4)ccc21` (centres unmarked) [IND_CC-686, 2-Chloro-N-[6-[8-[(1-methyl-1H-benzotriazol-5-yl)-methyl]-2,8-diazaspiro[4.5]-decane-2-carbonyl]-2,3-dihydro-1H-inden-1-yl]-5-(trifluoromethyl)-benzamide] was 69%; that for `CC(C)CN1CCC2(CC1)CCN(C(=O)c1ccc3c(c1)C(NC(=O)c1cc(Cl)ccc1F)CC3)CC2` (centres unmarked) [IND_CC-680, 5-Chloro-2-fluoro-N-[6-[9-(2-methyl-propyl)-3,9-diazaspiro[5.5]undecane-3-carbonyl]-2,3-dihydro-1H-inden-1-yl]-benzamide] was 54%; that for `O=C(NC1CCc2ccc(C(=O)N3CCC4(CCN(Cc5c(F)cccc5Cl)CC4)CC3)cc21)c1ccccc1Cl` (centres unmarked) [IND_CC-530, 2-Chloro-N-[6-[9-[(2-chloro-6-fluoro-phenyl)-methyl]-3,9-diazaspiro[5.5]undecane-3-carbonyl]-2,3-dihydro-1H-inden-1-yl]-benzamide] was 96%.
For `O=C(NC1CCc2ccc(C(=O)N3CCC4(CCN(Cc5cccnc5)CC4)CC3)cc21)c1ccccc1Cl` (centres unmarked) [IND_CC-511, 2-Chloro-N-[6-[9-(pyridin-3-yl-methyl)-3,9-diazaspiro[5.5]undecane-3-carbonyl]-2,3-dihydro-1H-inden-1-yl]-benzamide] the value was 94%; for `O=C(c1ccc2c(c1)C(NS(=O)(=O)c1c(Cl)cccc1Cl)CC2)N1CCC2(CC1)CCN(c1ccncc1)C2` (centres unmarked) [IND_CC-323, 2,6-Dichloro-N-[6-(2-pyridin-4-yl-2,8-diazaspiro[4.5]decane-8-carbonyl)-2,3-dihydro-1H-inden-1-yl]-benzenesulfonic acid amide], 100%; for `CC1(C)Cc2ccc(C(=O)N3CCC4(CC3)CCN(c3ccncc3)CC4)cc2C1NS(=O)(=O)c1cccc(C(F)(F)F)c1` (centres unmarked) [IND_CC-341, N-[2,2-Dimethyl-6-(9-pyridin-4-yl-3,9-diazaspiro[5.5]undecane-3-carbonyl)-1,3-dihydro-inden-1-yl]-3-(trifluoromethyl)-benzenesulfonic acid amide], 87%.
`O=C(NC1CCc2ccc(C(=O)N3CCC4(CCN(CCCc5cccc(F)c5)CC4)CC3)cc21)c1cc(C(F)(F)F)ccc1Cl` (centres unmarked) [IND_CC-702, 2-Chloro-N-[6-[9-[3-(3-fluorophenyl)-propyl]-3,9-diazaspiro[5.5]undecane-3-carbonyl]-2,3-dihydro-1H-inden-1-yl]-5-(trifluoromethyl)-benzamide]: the inhibition at 10 µM was 80%.
For `O=C(NC1CCc2ccc(C(=O)N3CCC4(CC3)CCN(c3ccncc3)CC4)cc21)c1ccccc1F` (centres unmarked) [IND_CC-399, 2-Fluoro-N-[6-(9-pyridin-4-yl-3,9-diazaspiro[5.5]undecane-3-carbonyl)-2,3-dihydro-1H-inden-1-yl]-benzamide], the inhibition at 10 µM came out at 101%.
As for `O=C(NC1CCc2ccc(C(=O)N3CCC4(CCN(Cc5cccnc5)CC4)CC3)cc21)c1c(F)cccc1Cl` (centres unmarked) [IND_CC-786, 2-Chloro-6-fluoro-N-[6-[9-(pyridin-3-yl-methyl)-3,9-diazaspiro[5.5]undecane-3-carbonyl]-2,3-dihydro-1H-inden-1-yl]-benzamide], the inhibition at 10 µM worked out at 104%.
Regarding `O=C(NC1CCc2ccc(C(=O)N3CCC4(CC3)CCN(S(=O)(=O)c3ccc(F)cc3F)CC4)cc21)c1ccccc1Cl` (centres unmarked) [IND_CC-609, 2-Chloro-N-[6-[9-[(2,4-difluoro-phenyl)sulfonyl]-3,9-diazaspiro[5.5]undecane-3-carbonyl]-2,3-dihydro-1H-inden-1-yl]-benzamide], the inhibition at 10 µM was 101%.
Consider `COc1ccc(CN2CCC3(CC2)CCN(C(=O)c2ccc4c(c2)C(NC(=O)c2sccc2Cl)CC4)C3)cc1F` (centres unmarked) [IND_CC-548, 3-Chloro-N-[6-[8-[(3-fluoro-4-methoxy-phenyl)-methyl]-2,8-diazaspiro[4.5]decane-2-carbonyl]-2,3-dihydro-1H-inden-1-yl]-thiophene-2-carboxylic acid amide], for which the inhibition at 10 µM was found to be 66%.
The value for `O=C(NC1CCc2ccc(CC(=O)N3CCC4(CCN(CC5CCCCC5)CC4)C3)cc21)c1ccccc1Cl` (centres unmarked) [IND_CC-807, 2-Chloro-N-[6-[2-[8-(cyclohexyl-methyl)-3,8-diazaspiro[4.5]decan-3-yl]-2-oxo-ethyl]-2,3-dihydro-1H-inden-1-yl]-benzamide] was 53%.
